Experimental findings from patent US9944971B2, “Determination of direct thrombin inhibitors in fluids like serum or urine” (DOASENSE GmbH, priority 2011, dated 2018) are described below.

The nature of series [1]: Concentration of dabigatran in urine of a treated patient, read from curve of spiked urine. Details: species or system human. On the procedure: This program quantifies the colors red, yellow and blue. […] Mean values were calculated from double values.
The target in a further series is T1, thrombin (Bos taurus, UniProt P00735).
T1 construct: purchased Chromogenix
In words: Chromogenic thrombin (factor IIa) inhibition test with substrate S-2238, absorption at 405 nm. Type of series: biochemical. The conditions noted are these: samples of plasma, serum and urine spiked at different concentrations, FIGS. 2 and 3.

Protocol for thrombin: Dissolve 1 ampule thrombin 10 U with 1 ml aqua. dest and is brought to 11.5 ml with Tris-Buffer. Additionally, add 1 ml aprotinin 500 KIU/ml.
The concentration of Dabigatran and Hirudin was carried out using the standard curve. The concentration of Dabigatran/Hirudin was determined by the optical density (OD) of the sample.

Take `[H]/N=C(/N)c1ccc(NCc2nc3cc(C(=O)N(CCC(=O)O)c4ccccn4)ccc3n2C)cc1` [Dabigatran]: the concentration of dabigatran in series [1] (human urine from a patient treated with dabigatran, undiluted) worked out at 85 ng; in series [1] (patient urine diluted 1:10 with urine not containing dabigatran), 8.5 ng; in series [1] (patient urine diluted 1:100 with urine not containing dabigatran), 0.85 ng.

In the case of Hirudin, the “inhibition of the activity of thrombin and release of para-nitroaniline from chromogenic substrate S2238” value at thrombin is given as “in a dose-dependent manner”.
